Patent publication US20220117884A1, “Methods and Compostitions for Enhancing the Viability of Microneedle Pores” (priority 2007, published 2022)

Experiments:
[1] = used in conjunction with microneedles; cited from earlier work
[2] = hairless guinea pigs, after microneedle exposure and occlusion; cited from earlier work
[3] = Transepidermal water loss (TEWL) study of microneedle pore viability with COX inhibitor gels under occlusion; assay type: in vivo; conditions: gel re-applied daily under occlusion; 5 day study, trial 2
Procedure: Two trials were completed with subject 1 and one trial was completed with subject 2. During the initial trial, subject one was tested for 7 days with only Solaraze® Gel. 100 microneedle arrays were placed on each test site and covered with gel. The gel was then protected with an occlusive backing membrane (3M™ Scotchpak™ 9733 2.05 mil polyester film, St. Paul, Minn.) and secured to the test site with Bioclusive* tape (Johnson and Johnson Medical Ltd, Gargrave, Skipton, UK). Along with gel test sites, control sites with and without microneedle insertions were tested minus gel. The control sites were treated in the same manner with gel minus the 100 microneedle insertions. The initial trial lasted for 7 days followed by a 5 day study.
In trial 2, the same procedure was performed on a different test and control sites using each of the following gel formulations: placebo, Solaraze® Gel, 3% diclofenac, 3% celecoxib, 10% ibuprofen, 10% ketoprofen, and controls with and without microneedle treatment. Each day, the protective covering was removed, areas were blotted 3 times with a Kimwipe® (Kimberly-Clark, Roswell, Ga.) to remove gel and trapped moisture and TEWL readings were made with an RG1 Evaporimeter (cyberDERM, Broomall, Pa.). The treated areas had the formula re-applied and immediately covered to prevent closure of the microneedle created pores.

For `O=C1CC[C@@]2(O)[C@H]3Cc4ccc(O)c5c4[C@@]2(CCN3CC2CC2)[C@H]1O5` [naltrexone], the “time for which steady state naltrexone concentrations remained” value [1] is listed as 48 h and the “time until steady state naltrexone concentrations were achieved” value [1] is listed as “two”.
In the case of `Cl.Oc1ccc2c3c1O[C@H]1[C@H](O)CC[C@@]4(O)[C@@H](C2)N(CC2CC2)CC[C@]314` [6(3-naltrexol hydrochloride], the “duration of significant enhancement in microneedle pore viability compared to untreated skin” value [2] is listed as 48 h.
With `O=C(O)Cc1ccccc1Nc1c(Cl)cccc1Cl` [diclofenac] the “enhancement in pore viability (TEWL), microneedle-treated areas versus control areas” value [3] was “enhanced viability of microneedle pores”.
